Values after ≈ are worked out from the molar mass of the structure shown. Active and inactive are the calls of the source. No cut-off for these calls is given here.
Assays:
Format in all cases: functional
Staphylococcus aureus [1] = assay: Antibacterial activity against Staphylococcus aureus ATCC 29213 by microbroth dilution method
Staphylococcus aureus [2] = assay: Antibacterial activity against methicillin-resistant Staphylococcus aureus N315 by microbroth dilution method
Staphylococcus aureus [3] = assay: Antibacterial activity against Staphylococcus aureus ATCC 25923 by microbroth dilution method
Staphylococcus aureus [4] = assay: Antibacterial activity against drug-resistant Staphylococcus aureus by microbroth dilution method
Staphylococcus aureus [5] = assay: Induction of resistance development in Staphylococcus aureus measured after 4 passages
Pseudomonas aeruginosa [6] = assay: Antibacterial activity against Pseudomonas aeruginosa by microbroth dilution method
Klebsiella pneumoniae = assay: Antibacterial activity against Klebsiella pneumoniae by microbroth dilution method
Acinetobacter baumannii = assay: Antibacterial activity against Acinetobacter baumannii by microbroth dilution method
Escherichia coli [7] = assay: Antibacterial activity against drug-resistant Escherichia coli by microbroth dilution method
Enterococcus faecalis = assay: Antibacterial activity against drug-resistant Enterococcus faecalis by microbroth dilution method
Pseudomonas aeruginosa [8] = assay: Antibacterial activity against Pseudomonas aeruginosa ATCC 27853 by microbroth dilution method
Escherichia coli [9] = assay: Antibacterial activity against Escherichia coli ATCC 25922 by microbroth dilution method
Candida parapsilosis = assay: Antifungal activity against Candida parapsilosis ATCC 22019; conditions: Lodderomyces parapsilosis
Aspergillus fumigatus = assay: Antifungal activity against Aspergillus fumigatus
Candida albicans [10] = assay: Antifungal activity against Candida albicans ATCC 90023
Candida albicans [11] = assay: Antifungal activity against drug-resistant Candida albicans
Candida tropicalis = assay: Antifungal activity against drug-resistant Candida tropicalis

Compound | MIC (Staphylococcus aureus [1]) [µM] | MIC (Staphylococcus aureus [2]) [µM] | MIC (Staphylococcus aureus [3]) [µM] | MIC (Staphylococcus aureus [4]) [µM] | Activity (Staphylococcus aureus [5]) | MIC (Pseudomonas aeruginosa [6]) [µM] | MIC (Klebsiella pneumoniae) [µM] | MIC (Acinetobacter baumannii) [µM] | MIC (Escherichia coli [7]) [µM] | MIC (Enterococcus faecalis) [µM] | MIC (Pseudomonas aeruginosa [8]) [µM] | MIC (Escherichia coli [9]) [µM] | MIC (Candida parapsilosis) [µM] | MIC (Aspergillus fumigatus) [µM] | MIC (Candida albicans [10]) [µM] | MIC (Candida albicans [11]) [µM] | MIC (Candida tropicalis) [µM]
CCn1cc(C(=O)O)c(=O)c2cc(F)c(N3CCNCC3)cc21 [NORFLOXACIN] | 3 (≈ 0.958 µg/mL) | 25 (≈ 7.98 µg/mL) | 2 (≈ 0.639 µg/mL) | 25 (≈ 7.98 µg/mL) | inactive | 1600 (≈ 512 µg/mL) | 802 (≈ 256 µg/mL) | 802 (≈ 256 µg/mL) | 1600 (≈ 512 µg/mL) | 802 (≈ 256 µg/mL) | 50 (≈ 16 µg/mL) | 25 (≈ 7.98 µg/mL) |  |  |  |  | 
CC(=O)Cn1cc(-c2csc(C)n2)c(=O)c2cc(F)ccc21 | 405 (≈ 128 µg/mL) | 1620 (≈ 512 µg/mL) | 1620 (≈ 512 µg/mL) | 1620 (≈ 512 µg/mL) |  | 810 (≈ 256 µg/mL) | 810 (≈ 256 µg/mL) | 1620 (≈ 512 µg/mL) | 1620 (≈ 512 µg/mL) | 1620 (≈ 512 µg/mL) | 810 (≈ 256 µg/mL) | 1620 (≈ 512 µg/mL) | 1620 (≈ 512 µg/mL) | 810 (≈ 256 µg/mL) | 405 (≈ 128 µg/mL) | 810 (≈ 256 µg/mL) | 810 (≈ 256 µg/mL)
CC(=O)Cn1cc(-c2csc(C)n2)c(=O)c2cccc(F)c21 | 810 (≈ 256 µg/mL) | 810 (≈ 256 µg/mL) | 405 (≈ 128 µg/mL) | 810 (≈ 256 µg/mL) |  | 1620 (≈ 512 µg/mL) | 1620 (≈ 512 µg/mL) | 405 (≈ 128 µg/mL) | 810 (≈ 256 µg/mL) | 810 (≈ 256 µg/mL) | 405 (≈ 128 µg/mL) | 810 (≈ 256 µg/mL) | 405 (≈ 128 µg/mL) | 1620 (≈ 512 µg/mL) | 810 (≈ 256 µg/mL) | 810 (≈ 256 µg/mL) | 405 (≈ 128 µg/mL)
C/C(Cn1cc(-c2csc(C)n2)c(=O)c2cc(F)cc(F)c21)=N\NC(N)=S | 629 (≈ 256 µg/mL) | 1260 (≈ 513 µg/mL) | 1260 (≈ 513 µg/mL) | 1260 (≈ 513 µg/mL) |  | 629 (≈ 256 µg/mL) | 314 (≈ 128 µg/mL) | 629 (≈ 256 µg/mL) | 1260 (≈ 513 µg/mL) | 1260 (≈ 513 µg/mL) | 629 (≈ 256 µg/mL) | 1260 (≈ 513 µg/mL) | 157 (≈ 64 µg/mL) | 629 (≈ 256 µg/mL) | 1260 (≈ 513 µg/mL) | 1260 (≈ 513 µg/mL) | 1260 (≈ 513 µg/mL)
Cc1nc(-c2c[nH]c3cc(Cl)c(F)cc3c2=O)cs1 | 871 (≈ 257 µg/mL) | 435 (≈ 128 µg/mL) | 435 (≈ 128 µg/mL) | 871 (≈ 257 µg/mL) |  | 871 (≈ 257 µg/mL) | 871 (≈ 257 µg/mL) | 435 (≈ 128 µg/mL) | 1740 (≈ 513 µg/mL) | 871 (≈ 257 µg/mL) | 435 (≈ 128 µg/mL) | 435 (≈ 128 µg/mL) | 218 (≈ 64.3 µg/mL) | 435 (≈ 128 µg/mL) | 109 (≈ 32.1 µg/mL) | 435 (≈ 128 µg/mL) | 871 (≈ 257 µg/mL)
CC(=O)Cn1cc(-c2csc(N)n2)c(=O)c2cccc(F)c21 | 807 (≈ 256 µg/mL) | 404 (≈ 128 µg/mL) | 404 (≈ 128 µg/mL) | 807 (≈ 256 µg/mL) |  | 807 (≈ 256 µg/mL) | 404 (≈ 128 µg/mL) | 404 (≈ 128 µg/mL) | 807 (≈ 256 µg/mL) | 404 (≈ 128 µg/mL) | 404 (≈ 128 µg/mL) | 807 (≈ 256 µg/mL) | 404 (≈ 128 µg/mL) | 404 (≈ 128 µg/mL) | 404 (≈ 128 µg/mL) | 404 (≈ 128 µg/mL) | 202 (≈ 64.1 µg/mL)
Nc1nc(-c2c[nH]c3ccc(F)cc3c2=O)cs1 | 490 (≈ 128 µg/mL) | 490 (≈ 128 µg/mL) | 490 (≈ 128 µg/mL) | 490 (≈ 128 µg/mL) |  | 981 (≈ 256 µg/mL) | 490 (≈ 128 µg/mL) | 490 (≈ 128 µg/mL) | 490 (≈ 128 µg/mL) | 490 (≈ 128 µg/mL) | 245 (≈ 64 µg/mL) | 490 (≈ 128 µg/mL) | 245 (≈ 64 µg/mL) | 245 (≈ 64 µg/mL) | 61 (≈ 15.9 µg/mL) | 245 (≈ 64 µg/mL) | 490 (≈ 128 µg/mL)
CC(=O)Cn1cc(-c2csc(C)n2)c(=O)c2cc(F)c(F)cc21 | 766 (≈ 256 µg/mL) | 1530 (≈ 513 µg/mL) | 766 (≈ 256 µg/mL) | 766 (≈ 256 µg/mL) |  | 1530 (≈ 513 µg/mL) | 766 (≈ 256 µg/mL) | 1530 (≈ 513 µg/mL) | 1530 (≈ 513 µg/mL) | 1530 (≈ 513 µg/mL) | 1530 (≈ 513 µg/mL) | 1530 (≈ 513 µg/mL) | 1530 (≈ 513 µg/mL) | 766 (≈ 256 µg/mL) | 766 (≈ 256 µg/mL) | 1530 (≈ 513 µg/mL) | 766 (≈ 256 µg/mL)
CC(=O)Cn1cc(-c2csc(C)n2)c(=O)c2cc(F)cc(F)c21 | 1530 (≈ 513 µg/mL) | 1530 (≈ 513 µg/mL) | 1530 (≈ 513 µg/mL) | 1530 (≈ 513 µg/mL) |  | 1530 (≈ 513 µg/mL) | 383 (≈ 128 µg/mL) | 766 (≈ 256 µg/mL) | 1530 (≈ 513 µg/mL) | 1530 (≈ 513 µg/mL) | 1530 (≈ 513 µg/mL) | 1530 (≈ 513 µg/mL) | 1530 (≈ 513 µg/mL) | 383 (≈ 128 µg/mL) | 766 (≈ 256 µg/mL) | 1530 (≈ 513 µg/mL) | 1530 (≈ 513 µg/mL)
C/C(Cn1cc(-c2csc(N)n2)c(=O)c2cc(F)c(Cl)cc21)=N\O | 44 (≈ 16.1 µg/mL) | 350 (≈ 128 µg/mL) | 44 (≈ 16.1 µg/mL) | 44 (≈ 16.1 µg/mL) |  | 87 (≈ 31.9 µg/mL) | 699 (≈ 256 µg/mL) | 350 (≈ 128 µg/mL) | 350 (≈ 128 µg/mL) | 350 (≈ 128 µg/mL) | 44 (≈ 16.1 µg/mL) | 22 (≈ 8.07 µg/mL) | 44 (≈ 16.1 µg/mL) | 699 (≈ 256 µg/mL) | 44 (≈ 16.1 µg/mL) | 87 (≈ 31.9 µg/mL) | 699 (≈ 256 µg/mL)
C/C(Cn1cc(-c2csc(N)n2)c(=O)c2cc(F)c(F)cc21)=N\NC(N)=S | 39 (≈ 15.9 µg/mL) | 78 (≈ 31.9 µg/mL) | 78 (≈ 31.9 µg/mL) | 78 (≈ 31.9 µg/mL) |  | 314 (≈ 128 µg/mL) | 627 (≈ 256 µg/mL) | 314 (≈ 128 µg/mL) | 627 (≈ 256 µg/mL) | 627 (≈ 256 µg/mL) | 314 (≈ 128 µg/mL) | 314 (≈ 128 µg/mL) | 1260 (≈ 513 µg/mL) | 314 (≈ 128 µg/mL) | 314 (≈ 128 µg/mL) | 1260 (≈ 513 µg/mL) | 1260 (≈ 513 µg/mL)

— ChEMBL document CHEMBL5584255, “Synthesis and antibacterial medicinal evaluation of carbothioamido hydrazonyl thiazolylquinolone with multitargeting antimicrobial potential to combat increasingly global resistance” (Eur J Med Chem, 2024)
